In BigSolDB 2.1:

NC(=O)N1c2ccccc2C=Cc2ccccc21
solubility (mole fraction) (in chloroform, 278.15 K): 0.0577
solubility (mole fraction) (in chloroform, 288.65 K): 0.0627
solubility (mole fraction) (in chloroform, 297.55 K): 0.0679
solubility (mole fraction) (in chloroform, 307.15 K): 0.0756
solubility (mole fraction) (in chloroform, 318.95 K): 0.086
solubility (mole fraction) (in chloroform, 327.95 K): 0.0968
solubility (mole fraction) (in cyclohexylamine, 287.25 K): 0.0149
solubility (mole fraction) (in cyclohexylamine, 302.35 K): 0.0193
solubility (mole fraction) (in cyclohexylamine, 317.65 K): 0.0259
solubility (mole fraction) (in cyclohexylamine, 332.85 K): 0.0353
solubility (mole fraction) (in cyclohexylamine, 348.15 K): 0.05
solubility (mole fraction) (in cyclohexylamine, 366.15 K): 0.0657
solubility (mole fraction) (in ethyl acetate, 281.35 K): 0.00272
solubility (mole fraction) (in ethyl acetate, 298.55 K): 0.00436
solubility (mole fraction) (in ethyl acetate, 306.55 K): 0.00548
solubility (mole fraction) (in ethyl acetate, 314.05 K): 0.0068
solubility (mole fraction) (in ethyl acetate, 326.85 K): 0.00959
solubility (mole fraction) (in ethyl acetate, 346.65 K): 0.0142
solubility (mole fraction) (in ethylene glycol, 279.15 K): 0.00098
solubility (mole fraction) (in ethylene glycol, 288.55 K): 0.00243
solubility (mole fraction) (in ethylene glycol, 316.85 K): 0.00861
solubility (mole fraction) (in ethylene glycol, 335.25 K): 0.0189
solubility (mole fraction) (in ethylene glycol, 346.55 K): 0.0294
solubility (mole fraction) (in ethylene glycol, 356.95 K): 0.0429
solubility (mole fraction) (in methyl acetate, 281.95 K): 0.00521
solubility (mole fraction) (in methyl acetate, 292.35 K): 0.00665
solubility (mole fraction) (in methyl acetate, 301.85 K): 0.00843
solubility (mole fraction) (in methyl acetate, 311.55 K): 0.0109
